Assay results reported in US20060099220A1, “Antibodies against and methods for producing vaccines for respiratory syncytial virus” (MEDIMMUNE, INC., priority 2004, published 2006).
Values joined by “and” are separate entries in the source; they are usually repeats but may differ in a detail not shown here. Identical values can stand only once. Where no end group is shown, it is not given here.

Columns and labels:
[1] = target: T1, MEDI-524 Fab (Homo sapiens, UniProt P01834+P01857); assay: Isothermal titration calorimetry (ITC) of F peptides with MEDI-524 Fab; format: binding; conditions: at 18° C., 25 mM His, pH 6.07
T1 construct: 0.088 mg/mL (1.88 μM-46.3 KDa) of MEDI-524 Fab
T1 sequence (P01857 with tags, fused parts or gaps limits assumed, other chains not shown): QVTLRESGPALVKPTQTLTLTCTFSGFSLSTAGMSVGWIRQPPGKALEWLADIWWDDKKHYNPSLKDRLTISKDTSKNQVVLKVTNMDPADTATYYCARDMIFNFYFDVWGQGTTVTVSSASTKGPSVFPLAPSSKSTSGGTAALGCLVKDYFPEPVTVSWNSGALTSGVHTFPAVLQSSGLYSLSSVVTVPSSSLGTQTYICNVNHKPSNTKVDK
Procedure: For this set of experiments, […] (1.16 μM-148.4 KDa) of MEDI-524 Mab and 0.088 mg/mL (1.88 μM-46.3 KDa) of MEDI-524 Fab, both in 25 mM His, pH 6.07 were used. On the other hand, 250 μL of 1 mg/mL of the different peptides dissolved in H2O, were provided by ABC. The peptides were then diluted into the appropriate volume of buffer to give a final concentration of 50 μM. The ITC experiments were run at 18° C. with the macromolecule (Mab or Fab) in the cell, by doing ˜26 injections of 10 μL of peptides, spaced 360 sec with constant stirring. The data fitting was accomplished by subtracting the average value of the few last injections as the buffer and unspecific heat of dilution contributions. […] A note apart is the fact that the observed binding capacity (N) increases with the length of the peptide, indicating possibly an extra conformational factor in the binding event. The entropic contribution: For the peptides SEQ ID NOs.24 and 26, the entropic factor seems to be similar; the extra amino acids at the end of the N-terminal seems not to affect greatly the binding parameters. On the other hand, the elongation at the C-terminal seems to decrease slightly the binding enthalpy, the binding constant, as well as the entropic factor. […] The binding constant seems to be smaller (weaker) for both 30-mer peptides respect to the 26-mer.

[2] = target: Numax™ (Homo sapiens, UniProt P01834+P01857); assay: Biacore kinetic analysis of F peptides on captured Numax™; format: binding; conditions: F peptide 100 nM over captured Numax™, Biacore 3000
Numax™, sequence (P01857 with tags, fused parts or gaps limits assumed, other chains not shown): as above
Procedure: All studies were performed using Sensor Chip CM5 (Biacore AB, Uppsala, Sweden) which contains a carboxymethyl (CM) dextran matrix and a Biacore® 3000 surface plasmon resonance (SPR) biosensor (Biacore AB, Uppsala, Sweden).
Numax™ was captured via a high-affinity interaction between the Fc portion of Numax™ and a goat anti-human IgG(Fc) (KPL, Inc., Gaithersburg, Md.). Goat anti-human IgG(Fc) was covalently attached to the CM dextran matrix using amine coupling chemistry. Two anti-human IgG(Fc)-specific surfaces were created. Numax™ was diluted to 10.9 μg/mL with HBS-EP and flowed for 1 min. across one of the anti-human IgG (Fc) surfaces at a flow rate of 5 μL/min. The other anti-human IgG(Fc) surface was used as a reference surface. F peptide was prepared by dilution in HBS-EP (0.01 M Hepes pH 7.4, 0.15 M NaCl, 3 mM EDTA, 0.005% surfactant P20) to a final concentration of 100 nM. F peptide was injected for 1 min. in a serial-flow manner across the reference surface and the Numax™-specific surface. Dissociation of bound F peptide was monitored for 2 min in the presence of HBS-EP. After this dissociation period, Numax™ and F peptide were removed with a 30-sec injection of 10 mM glycine pH 1.7 (Biacore AB, Uppsala, Sweden). Because of the removal of Numax™, it was necessary to create a new Numax™-specific surface prior to the injection of each F peptide.

[3] = test system: RSV MARM B7 (F protein K272T); assay: Microneutralization assay of MARM B7; conditions: selection Synagis ®
[4] = test system: RSV MARM B2 (F protein K272M); assay: Microneutralization assay of MARM B2; conditions: selection Synagis ®
[5] = test system: RSV MARM B1 (F protein K272N); assay: Microneutralization assay of monoclonal antibody resistant mutant (MARM) B1; conditions: selection Synagis ®
[6] = test system: RSV MARM B9 (F protein K272Q); assay: Microneutralization assay of MARM B9; conditions: selection Synagis ®
[7] = test system: RSV MARM #13 (F protein N262K, K272Q); assay: Microneutralization assay of MARM #13; conditions: MARM #13, N262K and K272Q, selection Synagis ® then A4b4
[8] = test system: RSV MARMs #6 and NuMARM3 (F protein K272E); assay: Microneutralization assay of K272E MARMs; conditions: for Neutralization of RSV: residue 272 altered from lysine (K) to glutamic acid (E)
[9] = test system: RSV MARM #10 (F protein K272E, N276Y); assay: Microneutralization assay of MARM #10; conditions: MARM #10, K272E and N276Y, selection A4b4
[10] = test system: MEDI-524 Mab; assay: Isothermal titration calorimetry (ITC) of F peptides with MEDI-524 Mab; format: binding; conditions: 25 mM His, pH 6 at 10° C.
Procedure: To evaluate the binding properties of the wild-type peptide (SEQ ID NO.28) to Numax™/MEDI-524 by using the ITC technique. The MEDI-524 Mab was titrated with SEQ ID NO.28 in the basis buffer 25 mM His, pH 6 at 10° C. SEQ ID NO.28: (MW=2732.14, no W, Y, or C). A working solution of 55 μM was prepared by diluting 30 μL of a 5 mg/mL peptide solution with 970 μL of 25 mM His, pH 6 buffer to be used for the ITC titrations. A 1.15 μM (0.1706 mg/ml) working solution of MEDI-524 was used for the experiments (MW 148400, A280=1.47).
For this set of experiments, […] (1.16 μM-148.4 KDa) of MEDI-524 Mab and 0.088 mg/mL (1.88 μM-46.3 KDa) of MEDI-524 Fab, both in 25 mM His, pH 6.07 were used. On the other hand, 250 μL of 1 mg/mL of the different peptides dissolved in H2O, were provided by ABC. The peptides were then diluted into the appropriate volume of buffer to give a final concentration of 50 μM. The ITC experiments were run at 18° C. with the macromolecule (Mab or Fab) in the cell, by doing ˜26 injections of 10 μL of peptides, spaced 360 sec with constant stirring. The data fitting was accomplished by subtracting the average value of the few last injections as the buffer and unspecific heat of dilution contributions. […]

[11] = target: Numax™ (MEDI-524) (Homo sapiens, UniProt P01834+P01857); assay: Binding ELISA of F-peptides; conditions: peptide coated on plate, MEDI-524 detected with anti-human IgG-HRP
Numax™ (MEDI-524), sequence (P01857 with tags, fused parts or gaps limits assumed, other chains not shown): as above
Procedure: Based in part upon the results of the MARM analysis above, F peptides were synthesized (done by AnaSpec, Inc. San Jose, Calif.). Each well of the assay plate was coated with […] of […] of a particular soluble RSV F-Peptide overnight at 2-8° C. After the plate was aspirated and washed with PBS/0.05% Tween-20 buffer, it was blocked by incubating with PBS/0.05% Tween-20/0.5% BSA buffer for one hour at ambient temperature. The plate was washed and MEDI-524 standard curve samples, test samples, MEDI-524 Reference Standard, and negative control were added to the washed plate. Following a one-hour incubation at ambient temperature, the plate was washed, and […] of a goat anti-human IgG-HRP (horseradish peroxidase) at 1:16,000 dilution was added to the plate. After washing, […] of 3,3′,5,5′-tetramethylbenzidine (TMB) substrate was then added to the plate and incubated at ambient temperature protected from light for 10 minutes. The enzymatic reaction was stopped by adding […] of 2N H2SO4, and the absorbance at 450 nm was measured using a microplate reader. […] After meeting all system suitability requirements, as well as meeting the criteria of the parallelism test, the ED50 ratio of the test sample to Reference Standard was calculated, and the results were expressed as a percentage of the Reference Standard binding activity. […]

[12] = test system: RSV with F protein mutations at position 272 other than K272E; assay: Microneutralization assay of MARMs, other mutations at position 272; conditions: all other mutations indicated at position 272
[13] = target: RSV F protein; assay: BIAcore analysis of Numax Ref. Std.; format: binding; conditions: Numax reference standard
From the text: BIAcore analysis can measure the kinetic interactions of anti-RSV antibodies with RSV F peptides by surface plasmon resonance using a BIAcore 1000, 2000, or 3000 instrument (Biacore, Uppsala, Sweden). Purified recombinant, C-terminally truncated F protein was covalently coupled to a (1-ethyl-3-[3-dimethylaminopropyl]carbodiimide hydrochloride)/N-hydroxysuccinimide-activated CM5 sensor chip at a low protein density (see Johnsson et al. (1991) Anal. Biochem. 198, 268-277). The unreacted active ester groups were blocked with 1 M ethanolamine. For use as a reference, when the BIAcore 2000 or 3000 instrument was used, a blank surface, containing no antigen, was prepared under identical immobilization conditions. To minimize binding variations caused by different lots of F proteins, most of the antibodies were measured against the same lot of F protein. In several cases when different lots of F proteins were used, their binding to an anti-RSV antibody was used as a reference to make sure that these lots had similar binding characteristics to the lot that is used mainly. A serial 2-fold dilution series of purified antibodies, ranging from 0.2 to 100 nm in HBS/Tween 20 buffer (BIAcore), was injected over the F-protein and reference cell surfaces, which were connected in series. In each measurement, the residual antibody was removed from the sensor chip by a brief pulse of 100 mM HCl. The binding curves were globally fitted to a 1:1 Langmuir binding model using the BIAevaluation program. This algorithm calculates both kon and koff. The apparent equilibrium dissociation constant, Kd, was deduced as the ratio of the two rate constants, koff/kon.

[14] = MARM NuMARM3, K272E, selection Numax ™

Row | Molecule | Ka (association constant) [1] | ΔHbinding [1] | ΔSbinding [1] | ka [2] | kd [2] | Kd [2] | Neutraliz by antibody ? [3] | Neutraliz by antibody ? [4] | Neutraliz by antibody ? [5] | Neutraliz by antibody ? [6] | Neutraliz by antibody ? [7] | Neutraliz by antibody ? ([8]; MARM #6, K272E, selection A4b4) | Neutraliz by antibody ? [8, 14] | Neutralization of RSV [8] | Neutraliz by antibody ? [9] | further results
1 | STYMLTNSELLSLIHDMPITNDQKKLMSNN-NH2 (C-terminus assumed) [SEQ ID NO: 26] | 7.1e+06 M⁻¹ | -11.4 kcal/mol | −8.1 | 2.43E+05 | 5.52E−03 | 22.7 nM |  |  |  |  |  |  |  |  |  | 
2 | Synagis ®: humanized RSV monoclonal antibody directed against the F glycoprotein of RSV [reference compound] |  |  |  |  |  |  | No | No | No | No | No | No | No | longer neutralized RSV | No | Neutraliz by antibody ? ([7]; listed as Synagis®): lost their ability to neutralize
3 | NSELLSLINDMPITNDQKKLMSNN-NH2 [SEQ ID NO.28] |  |  |  |  |  |  |  |  |  |  |  |  |  |  |  | binding strength compared to the SEQ ID NO.24 peptide [10]: ~3 orders of magnitude lower
4 | NSELLSLIHDMPITNDQKKLMSNNVQIVRQ-NH2 (C-terminus assumed) [SEQ ID NO: 25] | 6.5e+06 M⁻¹ | -10.4 kcal/mol | −4.7 | 2.50E+05 and 3.62E+05 | 1.81E−03 and 1.97E−03 | 7.23 nM and 5.44 nM |  |  |  |  |  |  |  |  |  | 
5 | F peptide with a histidine at position 262: F peptide with histidine at position 262 tested in the Numax binding ELISA; probably SEQ ID No. 13 (NSELLSLIHDMPITNDQKKLMSNN; Derived from respiratory syncytial virus sequence) |  |  |  |  |  |  |  |  |  |  |  |  |  |  |  | Binding to Numax™ compared with wild-type F protein epitope (SEQ ID NO.1) [11]: more tightly
6 | Numax ™: enhanced potency RSV-specific monoclonal antibody derived by in vitro affinity maturation of palivizumab (antibody, listed as Chimaera sp., V domains shown) VH: QVTLRESGPALVKPTQTLTLTCTFSGFSLSTAGMSVGWIRQPPGKALEWLADIWWDDKKHYNPSLKDRLTISKDTSKNQVVLKVTNMDPADTATYYCARDMIFNFYFDVWGQGTTVTVSS VL: DIQMTQSPSTLSASVGDRVTITCSASSRVGYMHWYQQKPGKAPKLLIYDTFFLDSGVPSRFSGSGSGTEFTLTISSLQPDDFATYYCFQGSGYPFTFGGGTKVEIK |  |  |  |  |  |  | Yes | Yes | Yes | Yes | No | No | No | longer neutralized RSV | No | Ability to neutralize RSV [12]: retain its ability to neutralize; Neutraliz by antibody ? ([6]; listed as Numax™): did not knock out Numax™ neutralization; Kd [13]: 0.004 nM; ka [13]: 4.70E+05; kd [13]: 1.88E−06; Neutraliz by antibody ? ([7]; listed as Numax™): lost their ability to neutralize
